EPA's ToxValDB 9.5
Values joined by “and” are separate entries in the source; they are usually repeats but may differ in a detail not shown here. Identical values can stand only once.

How the values were obtained:
[1] = system: Crangonyx richmondensis ssp. laurentianus; experiment: FEL; higher = less toxic; conditions: short-term; duration: 22 day; whole body; M/F; Monoporeia affinis; parasite infection
Mus musculus = conditions: oral
[2] = developmental, duration: 16 days, gavage, F, B6C3F1, generation: F1, F1: spleen: spleen B220+ cells + F1: spleen: Splenic NK cell activity
[3] = developmental, duration: 16 days, gavage, M, B6C3F1, generation: F1, F1: IgM antibody titer (SRBC) + F1: thymus: thymus CD3+ cells + F1: thymus: thymus CD4+ cells
[4] = developmental, duration: 16 days, gavage, M, B6C3F1, generation: F1, F1: spleen: Splenic NK cell activity
[5] = short-term, duration: 7 days, gavage, M, BALB/c, spleen: lymphocyte proliferation (ConA)
[6] = short-term, duration: 7 days, gavage, M, BALB/c, spleen: spleen CD3+ cells (cells normalized to control)
[7] = short-term, duration: 7 days, gavage, M, C57BL/6, serum corticosterone + spleen: IFN-gamma levels + spleen: IL-2 secreting splenocytes + spleen: spleen: relative weight + thymus: thymus: …
[8] = short-term, duration: 7 days, gavage, M, C57BL/6, serum corticosterone + spleen: lymphocyte proliferation (LPS) + spleen: spleen cellularity + spleen: spleen: relative weight + spleen: …
[9] = short-term, duration: 7 days, gavage, M, C57BL/6, spleen: apoptotic splenocytes + spleen: spleen - mitochondrial membrane Rh123 fluorescence + spleen: spleen - ROS-DCF fluorescence + spleen…
[10] = short-term, duration: 7 days, gavage, M, C57BL/6, spleen: splenic DN (CD4-CD8-) cells
[11] = short-term, duration: 7 days, gavage, M, C57BL/6, spleen: splenocytes - CAT activity + spleen: splenocytes - GST activity + splenic lymphocyte protein - bax + splenic lymphocyte protein - …
[12] = short-term, duration: 10 days, diet, M, 129/SV, spleen: spleen CD19+ cells + spleen: spleen CD4+ cells + spleen: spleen CD8+ cells + spleen: spleen cellularity + spleen: spleen Pan-NK+ …
[13] = short-term, duration: 10 days, diet, M, C57BL/6, bone marrow: bone marrow cellularity + bone marrow: bone marrow: no. of CD19+ B-lymphoid cells + bone marrow: bone marrow: no. of Gr1+CD11b…
[14] = short-term, duration: 10 days, diet, M, C57BL/6, spleen: spleen CD19+ cells + spleen: spleen CD4+ cells + spleen: spleen CD8+ cells + spleen: spleen cellularity + spleen: spleen NK1.1+ …
[15] = short-term, duration: 10 days, diet, M, spleen: spleen: absolute weight + thymus: thymus CD4+ cells + thymus: thymus CD8+ cells + thymus: thymus cellularity + thymus: thymus DP (…
[16] = short-term, duration: 12 days, gavage, M, C57BL/6, body mass after exposure + spleen: spleen CD8+ cells + spleen: spleen: relative weight + thymus: thymus: relative weight
[17] = short-term, duration: 12 days, gavage, M, C57BL/6, spleen: spleen CD4+ cells + spleen: spleen cellularity
[18] = short-term, duration: 14 days, gavage, F, BALB/c, spleen: spleen: relative weight + thymus: percentage of apoptotic cells in thymus + thymus: thymus: relative weight
[19] = short-term, duration: 14 days, gavage, M, BALB/c, spleen: lymphocyte proliferation (ConA)
[20] = short-term, duration: 14 days, gavage, M, BALB/c, spleen: spleen CD3+ cells + spleen: spleen CD3+CD4+ cells + spleen: spleen CD3+CD8+ cells
[21] = short-term, duration: 14 days, gavage, M, BALB/c, spleen: spleen: relative weight
[22] = short-term, duration: 21 days, gavage, F, B6C3F1, Survival rate (influenza A infection)

## O=S(=O)(O)C(F)(F)C(F)(F)C(F)(F)C(F)(F)C(F)(F)C(F)(F)C(F)(F)C(F)(F)F [Perfluorooctanesulfonic acid]
[1]
  FEL: 5 mg/L
Mus musculus; developmental, duration: 16 days, gavage, F, B6C3F1, generation: F1, F1: body weight (4 weeks of age) + F1: body weight (8 weeks of age) + F1: IgM antibody titer (SRBC) + F1: spleen: spleen CD3+ cells + F1: …
  NOEL: 5 mg/kg-day
Mus musculus; [2]
  LOEL: 5 mg/kg-day
  NOEL: 1 mg/kg-day
Mus musculus; [3]
  LOEL: 5 mg/kg-day
  NOEL: 1 mg/kg-day
Mus musculus; developmental, duration: 16 days, gavage, M, B6C3F1, generation: F1, F1: body weight (4 weeks of age) + F1: body weight (8 weeks of age) + F1: spleen: spleen B220+ cells + F1: spleen: spleen CD3+ cells + F1: …
  NOEL: 5 mg/kg-day
Mus musculus; [4]
  LOEL: 1 mg/kg-day
  NOEL: 0.1 mg/kg-day
Mus musculus; reproduction developmental, diet, M/F, BALB/c, generation: F1, F1: airway MCh sensitivity + F1: airway resistance (at 25 mg/mL methacholine) + F1: lung: BALF inflammatory cell counts: eosinophils + F1: …
  NOEL: 4 ppm
Mus musculus; reproduction developmental, diet, M/F, BALB/c, generation: F1, F1: airway MCh sensitivity + F1: lung: BALF inflammatory cell counts: macrophages + F1: lung: BALF inflammatory cell counts: total cell …
  LOEL: 4 ppm
Mus musculus; short-term, duration: 3 weeks, gavage, F, BALB/c, IgM antibody level (TNP 1:200) + IgM antibody level (TNP 1:50)
  NOEL: 20 mg/kg-day
Mus musculus; short-term, duration: 7 days, gavage, F, BALB/c, Peripheral blood phagocytosis (HEMA) + spleen: lymphocyte proliferation (ConA) + spleen: spleen cellularity + spleen: Splenic NK cell …
  LOEL: 20 mg/kg-day
Mus musculus; short-term, duration: 7 days, gavage, F, BALB/c, spleen: lymphocyte proliferation (LPS) + spleen: spleen CD4+ cells + spleen: spleen CD49b+ cells + spleen: spleen CD8+ cells + spleen: …
  NOEL: 20 mg/kg-day
Mus musculus; [5]
  LOEL: 10 mg/kg-day
  NOEL: 5 mg/kg-day
Mus musculus; [6]
  LOEL: 5 mg/kg-day
  NOEL: 2.5 mg/kg-day
Mus musculus; short-term, duration: 7 days, gavage, M, BALB/c, spleen: spleen CD3+ cells + spleen: spleen CD3+CD4+ cells + spleen: spleen CD3+CD4+ cells (cells normalized to control) + spleen: spleen CD3…
  NOEL: 10 mg/kg-day
Mus musculus; short-term, duration: 7 days, gavage, M, C57BL/6, IgM antibody-secreting cells (SRBC) + spleen: lymphocyte proliferation (ConA)
  LOEL: 5 mg/kg-day
Mus musculus; [7]
  LOEL: 20 mg/kg-day
  NOEL: 5 mg/kg-day
Mus musculus; [8]
  LOEL: 20 mg/kg-day
  NOEL: 5 mg/kg-day
Mus musculus; short-term, duration: 7 days, gavage, M, C57BL/6, spleen: IL-4 levels + Total serum IgG level + Total serum IgM level
  LOEL: 5 mg/kg-day
Mus musculus; short-term, duration: 7 days, gavage, M, C57BL/6, spleen: IL-10 secreting splenocytes
  NOEL: 20 mg/kg-day
Mus musculus; [9]
  LOEL: 5 mg/kg-day
  NOEL: 1 mg/kg-day
Mus musculus; short-term, duration: 7 days, gavage, M, C57BL/6, spleen: spleen: relative weight + thymus: thymus: relative weight
  NOEL: 10 mg/kg-day
Mus musculus; [10]
  LOEL: 40 mg/kg-day
  NOEL: 20 mg/kg-day
Mus musculus; short-term, duration: 7 days, gavage, M, C57BL/6, spleen: splenic DP (CD4+CD8+) cells
  NOEL: 40 mg/kg-day
Mus musculus; [11]
  LOEL: 10 mg/kg-day
  NOEL: 5 mg/kg-day
Mus musculus; [12]
  LOEL: 0.02%
  NOEL: 0.005%
Mus musculus; short-term, duration: 10 days, diet, M, C57BL/6, blood serum: IL-6 levels (+LPS in vivo) + blood serum: TNF-alpha levels + blood serum: TNF-alpha levels (+LPS in vivo) + bone marrow: IL-6 …
  NOEL: 0.02%
Mus musculus; short-term, duration: 10 days, diet, M, C57BL/6, blood serum: IL-6 levels + bone marrow: IL-6 levels (+ LPS in vitro) + bone marrow: IL-6 levels (+ LPS in vivo) + bone marrow: percent …
  LOEL: 0.02%
Mus musculus; [13]
  LOEL: 0.02%
  NOEL: 0.002%
Mus musculus; short-term, duration: 10 days, diet, M, C57BL/6, bone marrow: bone marrow: no. of early mature CD19+CD138-IgM+ B cells
  NOEL: 0.02%
Mus musculus; short-term, duration: 10 days, diet, M, C57BL/6, intrahepatic immune cells: TER119 (erythroid progenitor) + liver: IFN-gamma levels + liver: IL-4 levels + liver: TNF-alpha levels
  LOEL: 0.005%
Mus musculus; short-term, duration: 10 days, diet, M, C57BL/6, intrahepatic immune cells: all leukocytes (CD45+) + intrahepatic immune cells: B cells (CD19+) + intrahepatic immune cells: CD138 (plasma …
  NOEL: 0.005%
Mus musculus; short-term, duration: 10 days, diet, M, C57BL/6, liver: IFN-gamma levels + liver: IFN-gamma levels (+Con A) + liver: IL-4 levels + liver: IL-4 levels (+Con A) + liver: TNF-alpha levels + …
  LOEL: 0.004%
Mus musculus; [14]
  LOEL: 0.02%
  NOEL: 0.005%
Mus musculus; short-term, duration: 10 days, diet, M, spleen: spleen CD19+ cells + spleen: spleen CD4+ cells + spleen: spleen CD8+ cells + spleen: spleen cellularity + spleen: spleen Pan-NK+ …
  NOEL: 0.02%
Mus musculus; [15]
  LOEL: 0.02%
  NOEL: 0.005%
Mus musculus; [16]
  LOEL: 10 mg/kg-day
  NOEL: 5 mg/kg-day
Mus musculus; [17]
  LOEL: 20 mg/kg-day
  NOEL: 10 mg/kg-day
Mus musculus; [18]
  LOEL: 20 mg/kg-day
  NOEL: 5 mg/kg-day
Mus musculus; short-term, duration: 14 days, gavage, M, BALB/c, spleen mRNA expression of IL-1Beta + thymus mRNA expression of IL-1Beta + thymus: percentage of apoptotic cells in thymus + thymus: thymus: …
  NOEL: 20 mg/kg-day
Mus musculus; [19]
  LOEL: 10 mg/kg-day
  NOEL: 5 mg/kg-day
Mus musculus; short-term, duration: 14 days, gavage, M, BALB/c, spleen: spleen CD3+ cells (cells normalized to control) + spleen: spleen CD3+CD4+ cells (cells normalized to control) + spleen: spleen CD3+…
  LOEL: 2.5 mg/kg-day
Mus musculus; [20]
  LOEL: 5 mg/kg-day
  NOEL: 2.5 mg/kg-day
Mus musculus; [21]
  LOEL: 20 mg/kg-day
  NOEL: 5 mg/kg-day and 10 mg/kg-day
Mus musculus; short-term, duration: 14 days, gavage, M, BALB/c, thymus: percentage of apoptotic cells in thymus + thymus: thymus: relative weight
  LOEL: 5 mg/kg-day
Mus musculus; short-term, duration: 21 days, gavage, F, B6C3F1, IgM antibody titer (TNP)
  LOEL (TAD): 7 mg/kg-day
Mus musculus; [22]
  LOEL: 0.025 mg/kg-day
  NOEL: 0.005 mg/kg-day
